# Assay results as given in patent US8680139B2 (Progenra, priority 2009, dated 2014).
# Values joined by “and” are separate entries in the source; they are usually repeats but may differ in a detail not shown here. Equal entries are not always repeated.
# Tests used:
# USP7 = target: T1, USP7 (Homo sapiens, UniProt Q93009); test: USP7, Ub-PLA2 assay; assay type: biochemical; details: for EC50: Ub-PLA2 / NBD C6-HPC fluorescence, 30 minute preincubation, read-out: EC50 for inhibition of USP7; for USP7 inhibition, result in words: USP7, Ub-PLA2 assay
# T1 construct: full length human USP7 protein; made in house
# How it was run: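 Compounds tested against USP7 with DMSO vehicle control and NEM-treated wells as background. Fluorescence (RFU) read-out; % inhibition normalized per plate to mean DMSO and NEM controls.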
# [1] = HCT-116 Cellular Cytotoxicity Assay; details: human, HCT-116 cells, pH 7.2
# Procedure: The purpose of this assay is to determine if any of the synthesized compounds are cytotoxic against HCT-116 cells, as measured by resazurin metabolism. Resazurin is metabolized only by living cells from a non-fluorescent molecule into Resorufin, a highly red fluorescent dye. […] The cells were cultured in an incubator at 37° C. in 5% CO2 and 95% humidified air. […] The final concentration DMSO was 0.5% (v/v) in all samples. The plates were returned to the incubator for 72 hours. Following 72 hours of test compound exposure, 10 μL of 0.2 mg/mL Resazurin (Sigma) in phosphate buffered saline was added to each well and the plate was returned to the incubator for 3-6 hours. Since living cells metabolize Resazurin, the fluorescence of the reduction product of Resazurin was measured using a microplate fluorometer with λex=531 nm and λem=590 nm filters. Resazurin dye in medium without cells was used to determine the background, which was subtracted from the data for all experimental wells.
# T1 sequence (Q93009 whole entry): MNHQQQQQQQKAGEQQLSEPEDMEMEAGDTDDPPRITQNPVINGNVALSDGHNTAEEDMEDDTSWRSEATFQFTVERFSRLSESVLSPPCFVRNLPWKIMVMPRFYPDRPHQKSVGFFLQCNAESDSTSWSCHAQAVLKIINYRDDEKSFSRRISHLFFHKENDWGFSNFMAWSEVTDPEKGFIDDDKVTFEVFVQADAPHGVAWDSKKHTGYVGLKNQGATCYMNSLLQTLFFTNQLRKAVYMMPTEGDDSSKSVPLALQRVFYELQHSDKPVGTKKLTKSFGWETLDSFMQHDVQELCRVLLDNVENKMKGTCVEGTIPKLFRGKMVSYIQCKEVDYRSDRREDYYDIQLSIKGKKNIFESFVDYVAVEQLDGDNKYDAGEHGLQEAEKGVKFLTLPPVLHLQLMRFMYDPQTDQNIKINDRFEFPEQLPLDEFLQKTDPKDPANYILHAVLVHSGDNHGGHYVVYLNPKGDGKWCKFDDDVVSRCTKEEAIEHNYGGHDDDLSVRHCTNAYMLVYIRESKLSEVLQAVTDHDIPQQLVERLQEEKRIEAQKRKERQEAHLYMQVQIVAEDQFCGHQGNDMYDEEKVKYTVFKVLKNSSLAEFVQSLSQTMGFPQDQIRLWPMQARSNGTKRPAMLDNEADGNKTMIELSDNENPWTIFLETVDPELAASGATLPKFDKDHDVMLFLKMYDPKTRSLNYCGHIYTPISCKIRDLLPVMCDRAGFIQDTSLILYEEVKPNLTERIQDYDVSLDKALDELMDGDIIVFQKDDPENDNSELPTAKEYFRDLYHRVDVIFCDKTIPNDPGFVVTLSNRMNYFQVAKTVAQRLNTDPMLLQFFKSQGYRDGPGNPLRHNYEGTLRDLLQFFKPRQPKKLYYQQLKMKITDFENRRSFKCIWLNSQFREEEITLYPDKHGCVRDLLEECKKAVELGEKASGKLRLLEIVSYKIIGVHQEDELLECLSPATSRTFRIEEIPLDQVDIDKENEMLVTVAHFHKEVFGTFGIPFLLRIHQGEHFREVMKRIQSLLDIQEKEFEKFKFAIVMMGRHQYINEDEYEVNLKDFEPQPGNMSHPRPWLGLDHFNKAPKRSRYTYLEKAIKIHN
Compound,EC50 (USP7),"USP7 inhibition, result in words (USP7)",EC50 at 72 h [1]
"CC(=O)c1cc([N+](=O)[O-])c(Sc2ccc(Cl)cc2Cl)s1 [Example 2, 1-[5-(2,4-Dichlorophenylsulfanyl)-4-nitro-2-thienyl]ethanone]",1 to 10 µM,–,16.1 µM
"CC(=O)c1cc([N+](=O)[O-])c(Sc2c(Cl)cccc2Cl)s1 [Example 7, 1-[5-(2,6-Dichlorophenylsulfanyl)-4-nitro-2-thienyl]ethanone]",1 to 10 µM,–,30.6 µM
"CC(=O)c1cc([N+](=O)[O-])c(Sc2ccc(Cl)c(Cl)c2)s1 [Example 8, 1-[5-(3,4-Dichlorophenylsulfanyl)-4-nitro-2-thienyl]ethanone]",1 to 10 µM,–,14.8 µM
"CC(=O)c1cc([N+](=O)[O-])c(Sc2cc(Cl)cc(Cl)c2)s1 [Example 9, 1-[5-(3,5-Dichlorophenylsulfanyl)-4-nitro-2-thienyl]ethanone]",1 to 10 µM,–,8.13 µM
"CC(=O)c1cc(C#N)c(Sc2ccc(Cl)cc2Cl)s1 [Example 21, 1-[4-cyano-5-(2,4-dichlorophenyl)sulfanyl-2-thienyl]ethanone]",> 10 µM,–,32.5 µM
"CN(C)CCC(=O)c1cc([N+](=O)[O-])c(Sc2ccc(Cl)cc2Cl)s1 [Example 24, 1-[5-(2,4-dichlorophenyl)sulfanyl-4-nitro-2-thienyl]-3-dimethylamino-propan-1-one]",1 to 10 µM,–,27.3 µM
"CN(C)CCC(O)c1cc([N+](=O)[O-])c(Sc2ccc(Cl)cc2Cl)s1 (stereo not drawn) [Example 25, 1-[5-(2,4-dichlorophenyl)sulfanyl-4-nitro-2-thienyl]-3-dimethylamino-propan-1-ol]",1 to 10 µM,–,15.2 µM
"CN1CCC(NC(=O)c2cc([N+](=O)[O-])c(Sc3c(F)cncc3F)s2)CC1 [Example 256, 5-((3,5-difluoropyridin-4-yl)thio)-N-(1-methylpiperidin-4-yl)-4-nitrothiophene-2-carboxamide]",1 to 10 µM,–,–
"CN(C)CCCOc1ccc(NC(=O)c2cc([N+](=O)[O-])c(Sc3c(F)cncc3F)s2)cc1 [Example 257, 5-((3,5-difluoropyridin-4-yl)thio)-N-(4-(3-(dimethylamino)propoxy)phenyl)-4-nitrothiophene-2-carboxamide]",1 to 10 µM,–,–
"COC(=O)c1cc([N+](=O)[O-])c(Oc2c(Cl)cncc2Cl)s1 [Example 258, Methyl 5-((3,5-dichloropyridin-4-yl)oxy)-4-nitrothiophene-2-carboxylate]",1 to 10 µM,–,–
"CN1CCC(NC(=O)c2cc([N+](=O)[O-])c(Oc3c(Cl)cncc3Cl)s2)CC1 [Example 259, 5-((3,5-dichloropyridin-4-yl)oxy)-N-(1-methylpiperidin-4-yl)-4-nitrothiophene-2-carboxamide]",> 10 µM,–,–
"CC(C)N1CCC(NC(=O)c2cc([N+](=O)[O-])c(Oc3c(Cl)cncc3Cl)s2)CC1 [Example 260, 5-((3,5-dichloropyridin-4-yl)oxy)-N-(1-isopropylpiperidin-4-yl)-4-nitrothiophene-2-carboxamide]",> 10 µM,–,–
"CN1CCC(NC(=O)c2cc([N+](=O)[O-])c(Oc3c(Cl)cccc3Cl)s2)CC1 [Example 261, 5-(2,6-dichlorophenoxy)-N-(1-methylpiperidin-4-yl)-4-nitrothiophene-2-carboxamide]",> 10 µM,–,–
"CSc1ccc(CNC(=O)c2cc([N+](=O)[O-])c(Sc3c(Cl)cncc3Cl)s2)cc1 [Example 264, 5-((3,5-dichloropyridin-4-yl)thio)-N-(4-(methylthio)benzyl)-4-nitrothiophene-2-carboxamide]",≤ 1 µM,–,–
"COC(=O)c1cc([N+](=O)[O-])c(Sc2nc3cc(Cl)c(F)cc3[nH]2)s1 [Example 265, Methyl 5-((5-chloro-6-fluoro-1H-benzo[d]imidazol-2-yl)thio)-4-nitrothiophene-2-carboxylate]",1 to 10 µM,–,–
"COC(=O)c1cc([N+](=O)[O-])c(Sc2nc3nc(C)cc(C)n3n2)s1 [Example 266, Methyl 5-((5,7-dimethyl-[1,2,4]triazolo[1,5-a]pyrimidin-2-yl)thio)-4-nitrothiophene-2-carboxylate]",> 10 µM,–,–
"O=C(NCCCN1CCCCC1)c1cc([N+](=O)[O-])c(Sc2ccc(F)cc2F)s1 [Example 267, 5-((2,4-difluorophenyl)thio)-4-nitro-N-(3-(piperidin-1-yl)propyl)thiophene-2-carboxamide]",> 10 µM,–,–
"O=C(NCCC(=O)N1CCCC1)c1cc([N+](=O)[O-])c(Sc2c(Cl)cncc2Cl)s1 [Example 268, 5-((3,5-dichloropyridin-4-yl)thio)-4-nitro-N-(3-oxo-3-(pyrrolidin-1-yl)propyl)thiophene-2-carboxamide]",1 to 10 µM,–,–
"CN1CCC(NC(=O)c2cc([N+](=O)[O-])c(Sc3c(Cl)cccc3Cl)s2)CC1 [Example 269, 5-((2,6-dichlorophenyl)thio)-N-(1-methylpiperidin-4-yl)-4-nitrothiophene-2-carboxamide]",1 to 10 µM,–,–
"CN1CCC(NC(=O)Nc2cc([N+](=O)[O-])c(Sc3c(Cl)cncc3Cl)s2)CC1 [Example 270, 1-(5-((3,5-dichloropyridin-4-yl)thio)-4-nitrothiophen-2-yl)-3-(1-methylpiperidin-4-yl)urea]",1 to 10 µM,–,–
"CC(=O)c1cc([N+](=O)[O-])c(Sc2c(F)c(F)c(Cl)c(F)c2F)s1 [Example 272, 1-(5-((4-chloro-2,3,5,6-tetrafluorophenyl)thio)-4-nitrothiophen-2-yl)ethanone]",1 to 10 µM and > 10 µM,–,–

# Now from value to compound, other results behind:
EC50 (USP7),"USP7 inhibition, result in words (USP7)",Compound,EC50 at 72 h [1]
≤ 1 µM,–,"Cc1cnc(CNC(=O)c2cc([N+](=O)[O-])c(Sc3c(Cl)cncc3Cl)s2)cn1 [Example 103, 5-((3,5-dichloropyridin-4-yl)thio)-N-((5-methylpyrazin-2-yl)methyl)-4-nitrothiophene-2-carboxamide]",7.18 µM
≤ 1 µM,Particularly good results,"O=C(Nc1cc(C2CC2)n[nH]1)c1cc([N+](=O)[O-])c(Sc2c(Cl)cncc2Cl)s1 [Example 123, N-(3-cyclopropyl-1H-pyrazol-5-yl)-5-((3,5-dichloropyridin-4-yl)thio)-4-nitrothiophene-2-carboxamide]",11 µM
≤ 1 µM,Particularly good results,"CS(=O)(=O)c1ccc(NC(=O)c2cc([N+](=O)[O-])c(Sc3c(Cl)cncc3Cl)s2)cc1 [Example 129, 5-((3,5-dichloropyridin-4-yl)thio)-N-(4-(methylsulfonyl)phenyl)-4-nitrothiophene-2-carboxamide]",5.89 µM
≤ 1 µM,Particularly good results,"COc1ccc(NC(=O)c2cc([N+](=O)[O-])c(Sc3c(Cl)cncc3Cl)s2)cc1 [Example 155, 5-((3,5-dichloropyridin-4-yl)thio)-N-(4-methoxyphenyl)-4-nitrothiophene-2-carboxamide]",5.49 µM
≤ 1 µM,–,"O=C(Nc1ccc(N2CCOCC2)cc1)c1cc([N+](=O)[O-])c(Sc2c(Cl)cncc2Cl)s1 [Example 157, 5-((3,5-dichloropyridin-4-yl)thio)-N-(4-morpholinophenyl)-4-nitrothiophene-2-carboxamide]",27.3 µM
≤ 1 µM,–,"NS(=O)(=O)c1ccc(NC(=O)c2cc([N+](=O)[O-])c(Sc3c(Cl)cncc3Cl)s2)cc1 [Example 160, 5-((3,5-dichloropyridin-4-yl)thio)-4-nitro-N-(4-sulfamoylphenyl)thiophene-2-carboxamide]",6.17 µM
≤ 1 µM,–,"O=C(Nc1ccon1)c1cc([N+](=O)[O-])c(Sc2c(Cl)cncc2Cl)s1 [Example 171, 5-((3,5-dichloropyridin-4-yl)thio)-N-(isoxazol-3-yl)-4-nitrothiophene-2-carboxamide]",10.9 µM
≤ 1 µM,–,"O=C(Nc1nccs1)c1cc([N+](=O)[O-])c(Sc2c(Cl)cncc2Cl)s1 [Example 172, 5-((3,5-dichloropyridin-4-yl)thio)-4-nitro-N-(thiazol-2-yl)thiophene-2-carboxamide]",12.9 µM
≤ 1 µM,Particularly good results,"O=C(Nc1cnc2ccccc2c1)c1cc([N+](=O)[O-])c(Sc2c(Cl)cncc2Cl)s1 [Example 173, 5-((3,5-dichloropyridin-4-yl)thio)-4-nitro-N-(quinolin-3-yl)thiophene-2-carboxamide]",5.15 µM
≤ 1 µM,–,"COc1ccc(NC(=O)c2cc([N+](=O)[O-])c(Sc3c(Cl)cncc3Cl)s2)cn1 [Example 175, 5-((3,5-dichloropyridin-4-yl)thio)-N-(6-methoxypyridin-3-yl)-4-nitrothiophene-2-carboxamide]",7.23 µM
≤ 1 µM,–,"O=C(Nc1cccc2cnccc12)c1cc([N+](=O)[O-])c(Sc2c(Cl)cncc2Cl)s1 [Example 179, 5-((3,5-dichloropyridin-4-yl)thio)-N-(isoquinolin-5-yl)-4-nitrothiophene-2-carboxamide]",4.23 µM
≤ 1 µM,–,"O=C(Nc1ccc2ncccc2c1)c1cc([N+](=O)[O-])c(Sc2c(Cl)cncc2Cl)s1 [Example 180, 5-((3,5-dichloropyridin-4-yl)thio)-4-nitro-N-(quinolin-6-yl)thiophene-2-carboxamide]",7.62 µM
≤ 1 µM,–,"Cc1cc(NC(=O)c2cc([N+](=O)[O-])c(Sc3c(Cl)cncc3Cl)s2)n(CCN(C)C)n1 [Example 182, 5-((3,5-dichloropyridin-4-yl)thio)-N-(1-(2-(dimethylamino)ethyl)-3-methyl-1H-pyrazol-5-yl)-4-nitrothiophene-2-carboxamide]",14.3 µM
≤ 1 µM,–,"CN1C(C)(C)CC(NC(=O)c2cc([N+](=O)[O-])c(Sc3c(Cl)cncc3Cl)s2)CC1(C)C [Example 188, 5-((3,5-dichloropyridin-4-yl)thio)-4-nitro-N-(1,2,2,6,6-pentamethylpiperidin-4-yl)thiophene-2-carboxamide]",7.9 µM
